Values quoted from earlier work as cited in US20210106592A1, “METHODS AND COMPOSITIONS FOR THE TREATMENT OF TRAUMATIC BRAIN INJURY (TBI) AND RELATED DISORDERS” (priority 2017, published 2021).

Columns and labels:
[1] = tested on: generalized anxiety disorders; conditions: patients with generalized anxiety disorders; versus placebo and alprazolam
[2] = tested on: cholinergic receptors; conditions: in vitro; last in the decreasing order H1, H2 > 5-HT2 > D2, D1 > a1 > cholinergic
[3] = target: noradrenaline reuptake (Homo sapiens, UniProt P23975)
Sequence of noradrenaline reuptake (P23975 whole entry): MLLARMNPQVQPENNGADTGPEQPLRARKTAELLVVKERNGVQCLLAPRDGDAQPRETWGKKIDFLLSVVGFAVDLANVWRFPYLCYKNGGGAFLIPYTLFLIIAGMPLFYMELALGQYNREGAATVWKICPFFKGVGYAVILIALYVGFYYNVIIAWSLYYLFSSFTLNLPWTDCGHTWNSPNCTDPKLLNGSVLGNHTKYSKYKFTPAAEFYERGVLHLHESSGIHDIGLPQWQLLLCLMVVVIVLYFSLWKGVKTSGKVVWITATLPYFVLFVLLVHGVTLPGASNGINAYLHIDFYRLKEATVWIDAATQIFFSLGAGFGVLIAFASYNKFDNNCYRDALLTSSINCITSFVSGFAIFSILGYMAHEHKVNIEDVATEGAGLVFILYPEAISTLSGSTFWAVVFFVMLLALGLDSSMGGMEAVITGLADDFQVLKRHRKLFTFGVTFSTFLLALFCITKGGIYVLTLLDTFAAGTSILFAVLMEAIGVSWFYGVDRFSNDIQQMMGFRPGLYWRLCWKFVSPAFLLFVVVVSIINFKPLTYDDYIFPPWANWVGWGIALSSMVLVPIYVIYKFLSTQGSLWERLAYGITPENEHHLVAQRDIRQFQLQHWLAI

[4] = target: serotonin (5-HT) reuptake (Homo sapiens, UniProt P31645)
Sequence of serotonin (5-HT) reuptake (P31645 whole entry): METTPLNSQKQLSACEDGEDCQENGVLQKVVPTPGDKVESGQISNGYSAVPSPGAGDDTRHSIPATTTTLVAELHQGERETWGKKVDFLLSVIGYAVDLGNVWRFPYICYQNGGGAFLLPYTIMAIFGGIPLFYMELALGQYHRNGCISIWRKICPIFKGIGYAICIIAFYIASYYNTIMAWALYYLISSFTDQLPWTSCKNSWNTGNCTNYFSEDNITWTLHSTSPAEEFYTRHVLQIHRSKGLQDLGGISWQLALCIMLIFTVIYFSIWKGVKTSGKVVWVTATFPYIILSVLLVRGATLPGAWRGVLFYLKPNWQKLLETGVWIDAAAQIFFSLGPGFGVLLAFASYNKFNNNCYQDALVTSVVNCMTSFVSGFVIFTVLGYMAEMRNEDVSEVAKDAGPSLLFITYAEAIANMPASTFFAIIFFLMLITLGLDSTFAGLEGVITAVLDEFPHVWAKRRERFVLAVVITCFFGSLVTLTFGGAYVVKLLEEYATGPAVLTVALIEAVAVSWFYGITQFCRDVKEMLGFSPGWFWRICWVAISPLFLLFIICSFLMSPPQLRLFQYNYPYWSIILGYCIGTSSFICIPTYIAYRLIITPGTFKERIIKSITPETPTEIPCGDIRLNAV

[5] = tested on: sigma; conditions: recent basic research

blockade of cholinergic receptors [2]: very weakly
reuptake inhibiting properties for noradrenaline [3]: without reuptake inhibiting properties
reuptake inhibiting properties for serotonin (5-HT) [4]: without reuptake inhibiting properties
Compound: Cl.Cl.OCCN1CCN(CCCN2c3ccccc3C=Cc3ccccc32)CC1 [opipramol, 4-[3-(5H-dibenz[b,f]-azepine-5-yl)-propyl]-1-piperazine-ethanol dihydrochloride]
anxiolytic efficacy [1]: superiority over placebo and similar efficacy to alprazolam
sigma ligand strength [5]: strong sigma ligand
